Data taken from publication PMC11876601 (Molecular Systems Biology, 2025).
Read-outs that look alike come from different tables or passages of the source.

Tests used:
Experiment in all cases: cells
HPDE [1] = tested on: HPDE; set-up: ATPlite luminescence viability of PDAC cell lines, 11-dose single-agent curves, 4-parameter fit; details: HPDE, 72 h, read-out: EC50 [nM]
Outline: (§1)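 cells (1000 to 5000 per well) seeded 24 h before drug addition in a combination screen at 0.2% final DMSO. Controls were drug-free wells (negative) and 5 µM staurosporine (positive).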

PSN-1 [2] = tested on: PSN-1; set-up: Viability of PDAC cell lines, ATPlite luminescence, 11-dose single-agent curve fit; details: Homo sapiens, PSN1, 72 h, read-out: EC50 [nM]
Outline: (§2)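 cells (1000 to 5000 per well) seeded 24 h before drug addition in a screen at 0.2% final DMSO. Controls were drug-free wells (negative) and 5 µM staurosporine (positive).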

Suit2-07 [3] = tested on: Suit2-07; set-up: Viability of PDAC cell lines, ATPlite luminescence, 11-dose single-agent curve fit; details: 72 h, read-out: EC50 [nM]
Outline: as §2

Dan-G [4] = tested on: Dan-G; set-up: Viability of PDAC cell lines, ATPlite luminescence, 11-dose single-agent curve fit; details: 72 h, read-out: EC50 [nM]
Outline: as §2

HuP-T4 = tested on: HuP-T4; set-up: Viability of PDAC cell lines, ATPlite luminescence, 11-dose single-agent curve fit; details: Homo sapiens, HuP-T4, 72 h, read-out: EC50 [nM]
Outline: as §2

AsPC-1 [5] = tested on: AsPC-1; set-up: Viability of PDAC cell lines, ATPlite luminescence, 11-dose single-agent curve fit; details: Homo sapiens, ASPC1, 72 h, read-out: EC50 [nM]
Outline: as §2

Colo-357 [6] = tested on: Colo-357; set-up: Viability of PDAC cell lines, ATPlite luminescence, 11-dose single-agent curve fit; details: Homo sapiens, COLO357, 72 h, read-out: EC50 [nM]
Outline: as §2

FAMPAC [7] = tested on: FAMPAC; set-up: Viability of PDAC cell lines, ATPlite luminescence, 11-dose single-agent curve fit; details: 72 h, read-out: EC50 [nM]
Outline: as §2

BxPC-3 [8] = tested on: BxPC-3; set-up: Viability of PDAC cell lines, ATPlite luminescence, 11-dose single-agent curve fit; details: Homo sapiens, BXPC-3, 72 h, read-out: EC50 [nM]
Outline: as §2

PaTu-8988-T [9] = tested on: PaTu-8988-T; set-up: Viability of PDAC cell lines, ATPlite luminescence, 11-dose single-agent curve fit; details: Homo sapiens, PaTu 8988t, 72 h, read-out: EC50 [nM]
Outline: as §2

PANC-1 = tested on: PANC-1; set-up: Viability of PDAC cell lines, ATPlite luminescence, 11-dose single-agent curve fit; details: Homo sapiens, PANC-1, 72 h, read-out: EC50 [nM]
Outline: as §2

Capan-1 = tested on: Capan-1; set-up: Viability of PDAC cell lines, ATPlite luminescence, 11-dose single-agent curve fit; details: Homo sapiens, CAPAN-1, 72 h, read-out: EC50 [nM]
Outline: as §2

MiaPaCa-2 [10] = tested on: MiaPaCa-2; set-up: Viability of PDAC cell lines, ATPlite luminescence, 11-dose single-agent curve fit; details: Homo sapiens, MIA PaCa-2, 72 h, read-out: EC50 [nM]
Outline: as §2

Suit2-07 [11] = tested on: Suit2-07; set-up: ATPlite luminescence viability of PDAC cell lines, 11-dose single-agent curves, 4-parameter fit; details: 72 h, read-out: EC50 [nM]
Outline: as §1

AsPC-1 [12] = tested on: AsPC-1; set-up: ATPlite luminescence viability of PDAC cell lines, 11-dose single-agent curves, 4-parameter fit; details: Homo sapiens, ASPC1, 72 h, read-out: EC50 [nM]
Outline: as §1

BxPC-3 [13] = tested on: BxPC-3; set-up: ATPlite luminescence viability of PDAC cell lines, 11-dose single-agent curves, 4-parameter fit; details: Homo sapiens, BXPC-3, 72 h, read-out: EC50 [nM]
Outline: as §1

MiaPaCa-2 [14] = tested on: MiaPaCa-2; set-up: ATPlite luminescence viability of PDAC cell lines, 11-dose single-agent curves, 4-parameter fit; details: Homo sapiens, MIA PaCa-2, 72 h, read-out: EC50 [nM]
Outline: as §1

HPDE [15] = tested on: HPDE; set-up: Viability of PDAC cell lines, ATPlite luminescence, 11-dose single-agent curve fit; details: HPDE, 72 h, read-out: EC50 [nM]
Outline: as §2

PSN-1 [16] = tested on: PSN-1; set-up: ATPlite luminescence viability of PDAC cell lines, 11-dose single-agent curves, 4-parameter fit; details: Homo sapiens, PSN1, 72 h, read-out: EC50 [nM]
Outline: as §1

Dan-G [17] = tested on: Dan-G; set-up: ATPlite luminescence viability of PDAC cell lines, 11-dose single-agent curves, 4-parameter fit; details: 72 h, read-out: EC50 [nM]
Outline: as §1

FAMPAC [18] = tested on: FAMPAC; set-up: ATPlite luminescence viability of PDAC cell lines, 11-dose single-agent curves, 4-parameter fit; details: 72 h, read-out: EC50 [nM]
Outline: as §1

PaTu-8988-T [19] = tested on: PaTu-8988-T; set-up: ATPlite luminescence viability of PDAC cell lines, 11-dose single-agent curves, 4-parameter fit; details: Homo sapiens, PaTu 8988t, 72 h, read-out: EC50 [nM]
Outline: as §1

Colo-357 [20] = tested on: Colo-357; set-up: ATPlite luminescence viability of PDAC cell lines, 11-dose single-agent curves, 4-parameter fit; details: Homo sapiens, COLO357, 72 h, read-out: EC50 [nM]
Outline: as §1

SMILES | EC50 (AsPC-1 [5]) | EC50 (Colo-357 [6]) | EC50 (BxPC-3 [8]) | EC50 (PANC-1) | EC50 (AsPC-1 [12]) | EC50 (BxPC-3 [13]) | EC50 (MiaPaCa-2 [14]) | EC50 (PSN-1 [2]) | EC50 (Suit2-07 [3]) | EC50 (Dan-G [4]) | EC50 (HuP-T4) | EC50 (FAMPAC [7]) | EC50 (PaTu-8988-T [9]) | EC50 (Capan-1) | EC50 (Suit2-07 [11]) | EC50 (HPDE [15]) | EC50 (PSN-1 [16]) | EC50 (Dan-G [17]) | EC50 (FAMPAC [18]) | EC50 (PaTu-8988-T [19]) | further results
CNC(=O)c1cccc2cc(Oc3ccnc4cc(OCC5(N)CC5)c(OC)cc34)ccc12 [Lucitanib] | 8920 nM | > 10000 nM | 9500 nM | 2920 nM |  |  |  | 8180 nM | 5330 nM | 665 nM | > 10000 nM | > 10000 nM | 5920 nM | > 10000 nM |  |  |  |  |  |  | EC50 (HPDE [1]): 9210 nM; EC50 (MiaPaCa-2 [10]): > 10000 nM
CC(C)N1CCN(Cc2cnc(-c3cc(-c4cccc5[nH]ccc45)cc4[nH]ncc34)o2)CC1 [Nemiralisib] |  | 3010 nM |  | > 10000 nM | > 10000 nM | 4420 nM | > 10000 nM | 5830 nM |  | 5040 nM | 3260 nM | > 10000 nM | 811 nM | 10.5 nM | > 10000 nM | 7360 nM |  |  |  |  | 
CC(=O)c1c(C)c2cnc(Nc3ccc(N4CCNCC4)cn3)nc2n(C2CCCC2)c1=O [Palbociclib] | 4830 nM |  | 2930 nM | > 10000 nM |  |  | > 10000 nM |  |  |  | 0.1 nM | 1390 nM |  | 5070 nM | > 10000 nM | > 10000 nM | > 10000 nM | 8540 nM |  | > 10000 nM | EC50 (Colo-357 [20]): 5610 nM
COCc1c(-c2cc3cc(C)cc(OC)c3s2)c2c(N)ncnn2c1CN1CCNC(=O)C1 [Rogaratinib] |  | 3150 nM |  | 3980 nM | 3450 nM | 4270 nM | 2050 nM |  |  |  | 24.2 nM |  |  | 5610 nM | > 10000 nM | 7330 nM | 3270 nM | 3460 nM | 3300 nM | 3870 nM | 
Cc1cc(Nc2ncnc3ccc(NC4=NC(C)(C)CO4)cc23)ccc1Oc1ccn2ncnc2c1 [Tucatinib] | > 10000 nM |  | 1010 nM | 5670 nM |  |  |  | 24.4 nM | > 10000 nM |  | 292 nM | 7060 nM | > 10000 nM | 121 nM |  | 3660 nM |  | 222 nM |  |  | EC50 (Colo-357 [20]): 240 nM; EC50 (MiaPaCa-2 [10]): 7710 nM

The next compounds have a lower EC50 (PANC-1) than those just listed; values first:

EC50 (AsPC-1 [5]) | EC50 (Colo-357 [6]) | EC50 (BxPC-3 [8]) | EC50 (PANC-1) | EC50 (AsPC-1 [12]) | EC50 (BxPC-3 [13]) | EC50 (MiaPaCa-2 [14]) | SMILES | EC50 (PSN-1 [2]) | EC50 (Suit2-07 [3]) | EC50 (Dan-G [4]) | EC50 (HuP-T4) | EC50 (FAMPAC [7]) | EC50 (PaTu-8988-T [9]) | EC50 (Capan-1) | EC50 (Suit2-07 [11]) | EC50 (HPDE [15]) | EC50 (PSN-1 [16]) | EC50 (Dan-G [17]) | EC50 (FAMPAC [18]) | EC50 (PaTu-8988-T [19]) | further results
 | 9780 nM |  | 77.7 nM | > 10000 nM | 4940 nM | 1030 nM | COC(=O)c1ccc2c(c1)NC(=O)/C2=C(\Nc1ccc(N(C)C(=O)CN2CCN(C)CC2)cc1)c1ccccc1 [Nintedanib] |  |  |  | 146 nM |  |  | 10200 nM | > 10000 nM | 1550 nM | 8030 nM | 6960 nM | > 10000 nM | 6690 nM | 
1820 nM |  |  | 1860 nM |  | 2910 nM | 773 nM | CO[C@]1(C(=O)N[C@@H](C)c2ccc(-n3cc(F)cn3)nc2)CC[C@H](c2nc(C)cc(Nc3cc(C)[nH]n3)n2)CC1 [Pralsetinib] |  |  |  | 4550 nM |  |  | > 10000 nM | > 10000 nM | 4600 nM | 5870 nM | 6680 nM | 5210 nM | 6490 nM | EC50 (Colo-357 [20]): 6960 nM
 | 22.3 nM |  | 87.4 nM | 59.5 nM | 1360 nM | 24.1 nM | Cn1cnc2c(F)c(Nc3ccc(Br)cc3Cl)c(C(=O)NOCCO)cc21 [Selumetinib] |  | 451 nM | 1490 nM | 276 nM |  | 94.7 nM | 4670 nM |  | 268 nM | 229 nM |  | 8370 nM |  | 
